In patent US20240165097A1, “PHARMACEUTICAL COMPOSITION FOR THE TREATMENT OF ALZHEIMER'S DISEASE OR DEMENTIA” (Heptares Therapeutics Limited, priority 2021, published 2024):

Key:
[1] = biological target: T1, human muscarinic M3 receptor (Homo sapiens, UniProt P20309); assay: Alphascreen Surefire phospho-ERK1/2 assay, M3; type: cell-based; conditions: CHO cells, agonist 5 min; read-out: pEC50 M3 (converted)
T1 construct: expressed in transfected cells
Description: (§1) ERK1/2 phosphorylation is a downstream consequence of both Gq/11 and Gi/o protein coupled receptor activation, making it highly suitable for the assessment of M1, M3 (Gq/11 coupled) and M2, M4 receptors (Gi/o coupled), rather than using different assay formats for different receptor subtypes. CHO cells stably expressing the human muscarinic M1, M2, M3 or M4 receptor were plated (25K/well) onto 96-well tissue culture plates in MEM-alpha+10% dialysed FBS. Once adhered, cells were serum-starved overnight. Agonist stimulation was performed by the addition of 5 μL agonist to the cells for 5 min (37° C.). Media was removed and 50 μL of lysis buffer added.

[2] = biological target: T2, human muscarinic M1 receptor (Homo sapiens, UniProt P11229); assay: Alphascreen Surefire phospho-ERK1/2 assay, M1; type: cell-based; conditions: for EC50: CHO cells, agonist 5 min, read-out: pEC50 M1 (converted)
T2 construct: expressed in transfected cells
T2 sequence (P11229 1-460): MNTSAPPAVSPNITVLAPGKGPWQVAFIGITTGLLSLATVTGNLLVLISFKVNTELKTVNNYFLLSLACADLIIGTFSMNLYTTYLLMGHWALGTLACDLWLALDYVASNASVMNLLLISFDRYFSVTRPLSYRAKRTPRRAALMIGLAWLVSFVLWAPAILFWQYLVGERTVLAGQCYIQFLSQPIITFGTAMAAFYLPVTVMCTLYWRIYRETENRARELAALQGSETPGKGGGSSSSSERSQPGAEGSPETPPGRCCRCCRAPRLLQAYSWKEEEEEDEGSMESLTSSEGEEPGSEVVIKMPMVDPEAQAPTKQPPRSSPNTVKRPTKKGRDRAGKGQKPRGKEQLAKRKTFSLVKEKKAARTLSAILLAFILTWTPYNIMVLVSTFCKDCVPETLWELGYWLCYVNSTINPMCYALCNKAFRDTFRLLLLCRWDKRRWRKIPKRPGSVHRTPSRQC
Description: as §1

[3] = test system: scopolamine-induced amnesia; assay: Passive avoidance task; type: in vivo; conditions: 3, 10, 30 mg/kg po
Description: Studies were carried out as described previously by Foley et al., (2004) Neuropsychopharmacology. In the passive avoidance task scopolamine administration (1 mg/kg, i.p.) at 6 hours following training rendered animals amnesic of the paradigm. A dose range of 3, 10, and 30 mg/kg (po) free base, administered 90 minutes prior to the training period via oral gavage, was examined.

[4] = biological target: T3, human muscarinic M4 receptor (Homo sapiens, UniProt P08173); assay: Alphascreen Surefire phospho-ERK1/2 assay, M4; type: cell-based; conditions: CHO cells, agonist 5 min; read-out: pEC50 M4 (converted)
T3 construct: expressed in transfected cells
T3 sequence (P08173 1-479): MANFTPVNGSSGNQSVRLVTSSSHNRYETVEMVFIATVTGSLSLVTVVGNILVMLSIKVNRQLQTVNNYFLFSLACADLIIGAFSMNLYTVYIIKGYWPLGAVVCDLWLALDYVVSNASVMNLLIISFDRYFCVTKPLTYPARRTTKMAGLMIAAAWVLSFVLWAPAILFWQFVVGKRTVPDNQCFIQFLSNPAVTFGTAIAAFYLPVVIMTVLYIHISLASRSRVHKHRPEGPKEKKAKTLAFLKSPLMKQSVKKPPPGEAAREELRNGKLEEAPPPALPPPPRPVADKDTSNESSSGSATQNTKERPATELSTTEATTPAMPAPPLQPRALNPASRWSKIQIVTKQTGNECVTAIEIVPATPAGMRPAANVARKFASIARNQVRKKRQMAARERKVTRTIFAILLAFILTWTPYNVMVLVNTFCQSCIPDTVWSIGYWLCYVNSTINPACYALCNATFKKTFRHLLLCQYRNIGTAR
Description: as §1

[5] = biological target: T4, human muscarinic M2 receptor (Homo sapiens, UniProt P08172); assay: Alphascreen Surefire phospho-ERK1/2 assay, M2; type: cell-based; conditions: CHO cells, agonist 5 min
T4 construct: expressed in transfected cells
T4 sequence (P08172 1-466): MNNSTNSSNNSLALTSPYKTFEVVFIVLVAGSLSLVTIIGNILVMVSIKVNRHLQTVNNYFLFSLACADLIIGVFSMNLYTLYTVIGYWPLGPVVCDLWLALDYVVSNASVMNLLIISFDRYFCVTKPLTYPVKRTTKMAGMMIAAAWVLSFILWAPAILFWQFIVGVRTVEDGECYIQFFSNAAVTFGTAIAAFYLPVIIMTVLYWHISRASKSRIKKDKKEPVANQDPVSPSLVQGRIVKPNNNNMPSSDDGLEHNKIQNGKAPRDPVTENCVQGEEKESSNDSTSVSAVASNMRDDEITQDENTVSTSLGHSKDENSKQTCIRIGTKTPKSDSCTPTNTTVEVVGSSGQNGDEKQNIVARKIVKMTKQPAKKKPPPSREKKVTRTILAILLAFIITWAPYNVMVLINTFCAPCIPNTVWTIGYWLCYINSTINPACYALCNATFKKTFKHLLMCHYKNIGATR
Description: as §1

[6] = test system: patients with mild-to-moderate AD; conditions: human, in vivo; cited from earlier work

T1 sequence (P20309 whole entry): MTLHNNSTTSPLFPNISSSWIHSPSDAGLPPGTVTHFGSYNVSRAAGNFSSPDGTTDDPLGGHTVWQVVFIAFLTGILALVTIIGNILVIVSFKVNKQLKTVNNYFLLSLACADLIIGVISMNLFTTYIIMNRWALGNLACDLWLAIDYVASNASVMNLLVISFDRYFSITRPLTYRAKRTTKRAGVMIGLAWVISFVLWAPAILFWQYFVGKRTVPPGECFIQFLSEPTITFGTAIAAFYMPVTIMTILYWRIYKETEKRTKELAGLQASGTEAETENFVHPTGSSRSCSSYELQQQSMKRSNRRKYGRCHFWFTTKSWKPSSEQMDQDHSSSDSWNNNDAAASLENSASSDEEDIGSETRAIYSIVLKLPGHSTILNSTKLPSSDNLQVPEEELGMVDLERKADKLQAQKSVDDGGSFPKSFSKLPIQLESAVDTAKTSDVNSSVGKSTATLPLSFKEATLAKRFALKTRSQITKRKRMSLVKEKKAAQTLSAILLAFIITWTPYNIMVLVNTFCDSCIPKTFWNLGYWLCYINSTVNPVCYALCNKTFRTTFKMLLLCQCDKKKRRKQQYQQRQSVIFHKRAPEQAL

CCOC(=O)N1C2CCC1CC(N1CCC3(CC1)CNC(=O)C3)C2 (single isomer, unassigned) [Example 2-2 Isomer 1, ethyl 3-(3-oxo-2,8-diazaspiro[4.5]dec-8-yl)-8-azabicyclo[3.2.1]octane-8-carboxylate]
EC50 [1]: > 20000 nM | EC50 [2]: 79.4 nM | Emax ([2]; CHO, read-out: % Emax cf. ACh, M1, CHO cells, agonist 5 min): 99% | effect on scopolamine-induced amnesia [3]: reverse scopolamine-induced amnesia of the paradigm in a dose-dependent manner | EC50 [4]: 200 nM | EC50 ([5]; read-out: pEC50 M2 (converted)): > 20000 nM | Emax ([5]; read-out: % Emax cf. ACh, M2): 0%

CCOC(=O)N1C2CCC1CC(N1CCC3(CC1)CNC(=O)C3)C2 (single isomer, unassigned) [Example 2-2 Isomer 2, ethyl 3-(3-oxo-2,8-diazaspiro[4.5]dec-8-yl)-8-azabicyclo[3.2.1]octane-8-carboxylate]
EC50 [2]: 12.6 nM | EC50 [4]: 25.1 nM

Cc1ccc(Cc2cc3c(=O)n([C@H]4CCCC[C@@H]4O)cnc3c3ccccc23)cn1 [MK-7622]
incidence of cholinergic adverse events [6]: 21%
